Experimental data as given in BigSolDB 2.1.

O=C1CCC(=O)O1
solubility (mole fraction)
Details	278.15 K	283.15 K	288.15 K	293.15 K	298.15 K	303.15 K
in acetone	0.0721	0.0863	0.103	0.121	0.143	0.166
in acetonitrile	0.114	0.121	0.129	0.137	0.146	0.156
in ethyl acetate	0.0485	0.0544	0.0611	0.0684	0.0771	0.0853
in isopropanol	0.0502	0.0562	0.0632	0.0705	0.0793	0.0889
